How the values were obtained:
Assay in all cases: MIC, broth microdilution (CLSI), substance alone or ATB combined with compound at 4 or 8 μg/mL
[1] = system: PAE 105250; format: cell-based, P. aeruginosa; conditions: PAE 105250
Method in brief: (§1)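 Each strain received 5·10^5 CFU/mL of log-phase cells in ca-MHB over DMSO-spotted compound or compound-antibiotic combinations. After 16-20 h at 35° C, growth was scored visually.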

[2] = system: PAE UFR48; format: cell-based, P. aeruginosa; conditions: PAE UFR48
Method in brief: as §1

[3] = system: PAE UFR90; format: cell-based, P. aeruginosa; conditions: PAE UFR90
Method in brief: as §1

[4] = system: KPN BAA-1898; format: cell-based, K. pneumoniae; conditions: KPN BAA-1898
Method in brief: as §1

[5] = system: KPN UFR42; format: cell-based, K. pneumoniae; conditions: KPN UFR42
Method in brief: as §1

[6] = system: KPN 6299; format: cell-based, K. pneumoniae
Method in brief: as §1

## C[C@@H](O)[C@H]1C(=O)N2C(C(=O)O)=C(SCCN=CN)C[C@H]12 [IMI]
[1]; antibiotic alone
  MIC ATB alone: 1 µg/mL
[1]; with Example 1 @8 μg/ml
  MIC ATB combined with Example 1 @8 μg/ml: <=0.031 μg/mL
[1]; with Example 1 at 8 μg/ml
  MIC ATB combined with Example 1 @8 μg/ml: <=0.031 μg/mL
[1]; with Example 7 at 8 μg/ml
  MIC ATB combined with Example 7 @8 μgml: 16 µg/mL
[1]; with Example 9 @4 μg/ml
  MIC ATB combined with Example 9 @4 μg/ml: 1 µg/mL
[1]; with Example 9 at 4 μg/ml
  MIC ATB combined with Example 9 @4 μg/ml: 1 µg/mL
[1]; with Example 11 at 8 μg/ml
  MIC ATB combined with Example 11 @8 μg/ml: 1 µg/mL
[1]; with Example 12 at 8 μg/ml
  MIC ATB combined with Example 12 @8 μg/ml: 2 µg/mL
[1]; with Example 13 at 8 μg/ml
  MIC ATB combined with Example 13 @8 μg/ml: 8 µg/mL
[1]; with Example 14 at 8 μg/ml
  MIC ATB combined with Example 14 @8 μg/ml: 2 µg/mL
[1]; with Example 15 at 4 μg/ml
  MIC ATB combined with Example 15 @4 μgml: 2 µg/mL
[1]; with Example 16 at 4 μg/ml
  MIC ATB combined with Example 16 @4 μg/ml: 2 µg/mL
[2]; antibiotic alone
  MIC ATB alone: 8 µg/mL
[2]; with Example 1 @8 μg/ml
  MIC ATB combined with Example 1 @8 μg/ml: <0.031 µg/mL
[2]; with Example 1 at 8 μg/ml
  MIC ATB combined with Example 1 @8 μg/ml: <0.031 µg/mL
[2]; with Example 7 at 8 μg/ml
  MIC ATB combined with Example 7 @8 μgml: >32 µg/mL
[2]; with Example 9 @4 μg/ml
  MIC ATB combined with Example 9 @4 μg/ml: 8 µg/mL
[2]; with Example 9 at 4 μg/ml
  MIC ATB combined with Example 9 @4 μg/ml: 16 µg/mL
[2]; with Example 11 at 8 μg/ml
  MIC ATB combined with Example 11 @8 μg/ml: >32 µg/mL
[2]; with Example 12 at 8 μg/ml
  MIC ATB combined with Example 12 @8 μg/ml: >32 µg/mL
[2]; with Example 13 at 8 μg/ml
  MIC ATB combined with Example 13 @8 μg/ml: >32 µg/mL
[2]; with Example 14 at 8 μg/ml
  MIC ATB combined with Example 14 @8 μg/ml: >32 µg/mL
[2]; with Example 15 at 4 μg/ml
  MIC ATB combined with Example 15 @4 μgml: >32 µg/mL
[2]; with Example 16 at 4 μg/ml
  MIC ATB combined with Example 16 @4 μg/ml: >32 µg/mL
[3]; antibiotic alone
  MIC ATB alone: 2 µg/mL
[3]; with Example 1 @8 μg/ml
  MIC ATB combined with Example 1 @8 μg/ml: <0.031 µg/mL
[3]; with Example 1 at 8 μg/ml
  MIC ATB combined with Example 1 @8 μg/ml: <0.031 µg/mL
[3]; with Example 7 at 8 μg/ml
  MIC ATB combined with Example 7 @8 μgml: 32 µg/mL
[3]; with Example 9 @4 μg/ml
  MIC ATB combined with Example 9 @4 μg/ml: 1 µg/mL
[3]; with Example 9 at 4 μg/ml
  MIC ATB combined with Example 9 @4 μg/ml: 1 µg/mL
[3]; with Example 11 at 8 μg/ml
  MIC ATB combined with Example 11 @8 μg/ml: 1 µg/mL
[3]; with Example 12 at 8 μg/ml
  MIC ATB combined with Example 12 @8 μg/ml: 2 µg/mL
[3]; with Example 13 at 8 μg/ml
  MIC ATB combined with Example 13 @8 μg/ml: 16 µg/mL
[3]; with Example 14 at 8 μg/ml
  MIC ATB combined with Example 14 @8 μg/ml: 2 µg/mL
[3]; with Example 15 at 4 μg/ml
  MIC ATB combined with Example 15 @4 μgml: 2 µg/mL
[3]; with Example 16 at 4 μg/ml
  MIC ATB combined with Example 16 @4 μg/ml: 4 µg/mL
[4]; antibiotic alone
  MIC ATB alone: 64 µg/mL
[4]; with Example 1 @8 μg/ml
  MIC ATB combined with Example 1 @8 μg/ml: 2 µg/mL
[4]; with Example 1 at 8 μg/ml
  MIC ATB combined with Example 1 @8 μg/ml: 2 µg/mL
[4]; with Example 7 at 8 μg/ml
  MIC ATB combined with Example 7 @8 μgml: 16 µg/mL
[4]; with Example 9 @4 μg/ml
  MIC ATB combined with Example 9 @4 μg/ml: <0.031 µg/mL
[4]; with Example 9 at 4 μg/ml
  MIC ATB combined with Example 9 @4 μg/ml: <0.031 µg/mL
[4]; with Example 11 at 8 μg/ml
  MIC ATB combined with Example 11 @8 μg/ml: <0.031 µg/mL
[4]; with Example 12 at 8 μg/ml
  MIC ATB combined with Example 12 @8 μg/ml: <0.031 µg/mL
[4]; with Example 13 at 8 μg/ml
  MIC ATB combined with Example 13 @8 μg/ml: 0.5 µg/mL
[4]; with Example 14 at 8 μg/ml
  MIC ATB combined with Example 14 @8 μg/ml: <0.031 µg/mL
[4]; with Example 15 at 4 μg/ml
  MIC ATB combined with Example 15 @4 μgml: <0.031 µg/mL
[4]; with Example 16 at 4 μg/ml
  MIC ATB combined with Example 16 @4 μg/ml: <0.031 µg/mL
[5]; antibiotic alone
  MIC ATB alone: 32 µg/mL
[5]; with Example 1 @8 μg/ml
  MIC ATB combined with Example 1 @8 μg/ml: >32 µg/mL
[5]; with Example 1 at 8 μg/ml
  MIC ATB combined with Example 1 @8 μg/ml: >32 µg/mL
[5]; with Example 7 at 8 μg/ml
  MIC ATB combined with Example 7 @8 μgml: >32 µg/mL
[5]; with Example 9 @4 μg/ml
  MIC ATB combined with Example 9 @4 μg/ml: 32 µg/mL
[5]; with Example 9 at 4 μg/ml
  MIC ATB combined with Example 9 @4 μg/ml: 32 µg/mL
[5]; with Example 11 at 8 μg/ml
  MIC ATB combined with Example 11 @8 μg/ml: <0.031 µg/mL
[5]; with Example 12 at 8 μg/ml
  MIC ATB combined with Example 12 @8 μg/ml: <0.031 µg/mL
[5]; with Example 13 at 8 μg/ml
  MIC ATB combined with Example 13 @8 μg/ml: >32 µg/mL
[5]; with Example 14 at 8 μg/ml
  MIC ATB combined with Example 14 @8 μg/ml: <0.031 µg/mL
[5]; with Example 15 at 4 μg/ml
  MIC ATB combined with Example 15 @4 μgml: <0.031 µg/mL
[5]; with Example 16 at 4 μg/ml
  MIC ATB combined with Example 16 @4 μg/ml: <0.031 µg/mL
[6]; antibiotic alone
  MIC ATB alone: 0.25 µg/mL
[6]; with Example 1 @8 μg/ml
  MIC ATB combined with Example 1 @8 μg/ml: 1 µg/mL
[6]; with Example 1 at 8 μg/ml
  MIC ATB combined with Example 1 @8 μg/ml: 1 µg/mL
[6]; with Example 7 at 8 μg/ml
  MIC ATB combined with Example 7 @8 μgml: 4 µg/mL
[6]; with Example 9 @4 μg/ml
  MIC ATB combined with Example 9 @4 μg/ml: <0.031 µg/mL
[6]; with Example 9 at 4 μg/ml
  MIC ATB combined with Example 9 @4 μg/ml: <0.031 µg/mL
